Where a name gives a salt, the structure may show the parent alone.
Key:
[1] = OVX rats; oral administration; in the presence of an anti-resorptive agent (Gowen et al. 2000); cited from earlier work
[2] = intravenous bolus injection; cited from earlier work
[3] = postmenopausal women; placebo-controlled trial (Neer et al. 2001); cited from earlier work

COc1ccc(CC(C)(C)NC[C@H](O)[C@H]2CSCN2Cc2cccc(C#N)c2)cc1 (stereo in doubt) (as salt: hydrochloride) [Example 3, 3-(4-{1-Hydroxy-2-[2-(4-methoxy-phenyl)-1,1-dimethyl-ethylamino]-ethyl}-thiazolidin-3-ylmethyl)-benzonitrile]
melting point: 158 to 163 °C

CC(C)(Cc1ccc2ccccc2c1)NC[C@H](O)[C@H]1CSCN1Cc1ccc(SCc2ccco2)c([N+](=O)[O-])c1 (stereo in doubt) [Example 4, 2-(1,1-Dimethyl-2-naphthalen-2-yl-ethylamino)-1-{3-[4-(furan-2-ylmethylsulfanyl)-3-nitro-benzyl]-thiazolidin-4-yl}-ethanol]
melting point: 80 to 85 °C

CC(C)(Cc1ccc2ccccc2c1)NC[C@@H](O)COc1cccc(Cl)c1C#N [NPS-2143]
effect on bone mass [1]: increase in bone mass | effect on serum PTH [2]: transient increase in serum PTH

PTH peptide fragment (1–34): PTH peptide fragment (1–34), parathyroid hormone fragment; stimulator of bone formation (SVSEIQLMHNLGKHLNSMERVEWLRKKLQDVHNF; Parathyroid hormone; UniProt P01270 32-65, looked up, fragment)
reduction of the risk of non-traumatic, non-spine fractures [3]: 54% | reduction of the risk of spine fractures [3]: 65%

Reference: patent US7205322B2, “Thiazolidine compounds as calcium sensing receptor modulators” (Bristol-Myers Squibb Company, priority 2003, dated 2007)
